The values below come from patent publication US7345058B2, “Pyrazoles” (Hoffmann-La Roche Inc., priority 2005, dated 2008).

Purified human HSD1, sequence (P28845 whole entry): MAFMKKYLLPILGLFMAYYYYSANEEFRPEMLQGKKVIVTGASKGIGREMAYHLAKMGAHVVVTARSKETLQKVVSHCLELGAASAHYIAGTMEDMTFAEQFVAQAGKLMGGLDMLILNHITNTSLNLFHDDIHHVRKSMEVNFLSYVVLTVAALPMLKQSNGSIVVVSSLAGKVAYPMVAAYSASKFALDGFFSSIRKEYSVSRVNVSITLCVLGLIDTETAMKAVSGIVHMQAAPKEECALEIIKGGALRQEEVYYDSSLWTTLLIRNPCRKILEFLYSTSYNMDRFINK

The target of the experiment is Purified human HSD1 (Homo sapiens, UniProt P28845). Briefly: In vitro inhibition of 11β-HSD1 (time-resolved fluorescence, cortisone to cortisol). Format: biochemical. As to conditions: purified human HSD1, cortisone substrate, incubated at 37° C. for 30 min. Here is the method:
Purified human HSD1 was diluted in 50 mM Tris-HCl, 100 mM NaCl, 0.1 mg/ml BSA, 0.02% Lubrol, 20 mM MgCl2, 10 mM glucose 6-phosphate, 0.4 mM NADPH, 60 U/ml glucose 6-phosphate dehydrogenase to a concentration of 1.5 ug/ml (Enzyme Solution). Cortisone (100 uM) in DMSO was diluted to 1 uM with 50 mM Tris-HCl, 100 mM NaCl (Substrate Solution). Testing compounds (40 uM) in DMSO were diluted 3 fold in series in DMSO and further diluted 20 fold in Substrate Solution. Enzyme Solution (10 ul/well) was added into 384 well microtiter plates followed by diluted compound solutions (10 ul/well) and mixed well. Samples were then incubated at 37° C. for 30 min. EDTA/biotin-cortisol solution (10 ul/well) in 28 mM EDTA, 100 nM biotin-cortisol, 50 mM Tris-HCl, 100 mM NaCl was then added followed by 5 ul/well of anti-cortisol antibody (3.2 ug/ml) in 50 mM Tris-HCl, 100 mM NaCl, 0.1 mg/ml BSA and the solution was incubated at 37° C. for 30 min. Five ul per well of Eu-conjugated anti-mouse IgG (16 nM) and APC-conjugated streptavidin (160 nM) in 50 mM Tris-HCl, 100 mM NaCl, 0.1 mg/ml BSA were added and the solution was incubated at room temperature for 2 hours. Signals were quantitated by reading time-resolved fluorescence on a Victor 5 reader (Wallac).
Percent inhibition of HSD 1 activity by an agent at various concentrations was calculated by the formula % Inhibition=100*[1−(Fs−Fb)/(Ft−Fb)], where: • Fs is the fluorescence signal of the sample which included the agent, • Fb is the fluorescence signal in the absence of HSD1 and agent, • Ft is the fluorescence signal in the presence of HSD1, but no agent.
The inhibitory activities of test compounds were determined by the IC50s, or the concentration of compound that gave 50% inhibition.
`Cn1ncc(C(=O)N2CCCC3CCCCC32)c1-c1ccc(F)c(Cl)c1` (stereo not shown) [Example 39, [5-(3-Chloro-4-fluoro-phenyl)-1-meth-yl-1H-pyrazol-4-yl]-(octa-hydro-quinolin-1-yl)-meth-anone]: the IC50 was found to be 208 nM.

As for `Cn1ncc(C(=O)N2CCCC3CCCCC32)c1-c1cnc2ccccc2c1` (stereo not shown) [Example 19], the midpoint of inhibition, the IC50, lay at 189 nM.

The compound `Cn1ncc(C(=O)N2CCC(Cl)C3CCCCC32)c1-c1ccccc1` (stereo not shown) [Example 36] yielded an IC50 of 600 nM.

`CC(C)c1cccc(-c2c(C(=O)N3CCCC4CCCCC43)cnn2C)c1` (stereo not shown) [Example 12, [5-(3-Isopropyl-phenyl)-1-methyl-1H-py-razol-4-yl]-(octa-hydro-quinolin-1-yl)-meth-anone] registered an IC50 of 59 nM.

In turn, `Cn1ncc(C(=O)N2CCCC3CCCCC32)c1-c1ccc([N+](=O)[O-])cc1` (stereo not shown) [Example 55, [1-Methyl-5-(4-ni-tro-phenyl)-1H-pyra-zol-4-yl]-(octa-hydro-quinolin-1-yl)-methanone] returned an IC50 of 552 nM.

Turning to `Cn1ncc(C(=O)NC2CCCCCCC2)c1-n1cccc1` [Example 96, 1-Methyl-5-pyrrol-1-yl-1H-py-razole-4-carboxylic acidcyclooctylamide], the IC50 was determined as 58 nM. Compared with the last compound, the IC50 is about 9.5-fold lower.

In the case of `Cn1ncc(C(=O)N2CCCC3CCCCC32)c1-c1cccc(C(F)(F)F)c1` (stereo not shown) [Example 49, [1-Methyl-5-(3-tri-fluoromethyl-phenyl)-1H-py-razol-4-yl]-(octa-hydro-quinolin-1-yl)-meth-anone], the IC50 was 160 nM. Against the preceding compound, the IC50 is about 2.8-fold higher.

As to `CSc1ccc(-c2c(C(=O)N3CCCC4CCCCC43)cnn2C)cc1` (stereo not shown) [Example 33], the concentration for half-maximal inhibition (IC50) was 78 nM.

As for `CCOc1ccc(-c2c(C(=O)N3CCCC4CCCCC43)cnn2C)c(Cl)c1` (stereo not shown) [Example 82, [5-(2-Chloro-4-eth-oxy-phenyl)-1-meth-yl-1H-pyrazol-4-yl]-(octa-hydro-quinolin-1-yl)-meth-anone], the IC50 was 21 nM.

Consider `Cn1ncc(C(=O)N2CCCC3CCCCC32)c1-c1cccc(O)c1` (stereo not shown) [Example 59, [5-(3-Hydroxy-phe-nyl)-1-methyl-1H-pyra-zol-4-yl]-(octa-hydro-quinolin-1-yl)-meth-anone], for which the IC50 amounted to 700 nM.

Turning to `Cc1c(Cl)cccc1-c1c(C(=O)N2CCCC3CCCCC32)cnn1C` (stereo not shown) [Example 46, [5-(3-Chloro-2-meth-yl-phenyl)-1-meth-yl-1H-pyrazol-4-yl]-(octa-hydro-quinolin-1-yl)-meth-anone], the IC50 is 38 nM.

Take `Cn1ncc(C(=O)N2CCCC3CCCCC32)c1-c1ccc(C(F)(F)F)c(Cl)c1` (stereo not shown) [Example 52, [5-(3-Chloro-4-tri-fluoromethyl-phenyl)-1-meth-yl-1H-pyra-zol-4-yl]-(octa-hydro-quinolin-1-yl)-meth-anone]: half-maximal inhibition (IC50) was put at 195 nM.

In the case of `Cn1ncc(C(=O)N2CCCC3CCCCC32)c1-c1ccc(CO)cc1` (stereo not shown) [Example 67, [5-(4-Hydroxy-methyl-phenyl)-1-meth-yl-1H-pyra-zol-4-yl]-(octa-hydro-quinolin-1-yl)-meth-anone], half-maximal inhibition (IC50) required 121 nM.

With `CCC1CCCCN1C(=O)c1cnn(C)c1-c1ccccc1` (stereo not shown) [Example 107, (2-Ethyl-piperidin-1-yl)-(1-meth-yl-5-phe-nyl-1H-pyrazol-4-yl)-methanone], the half-maximal inhibitory concentration (IC50) was 260 nM.

`Cn1ncc(C(=O)N2CCCC(Cc3ccccc3)C2)c1-n1cccc1` (stereo not shown) [Example 106, (3-Benzyl-piperidin-1-yl)-(1-meth-yl-5-pyrrol-1-yl-1H-py-razol-4-yl)-methanone]: the IC50 was found to be 1480 nM.

`Cn1ncc(C(=O)N2CCCC3CCCCC32)c1-c1cccc(C=O)c1` (stereo not shown) [Example 21, 3-[2-Methyl-4-(octa-hydro-quinoline-1-carbo-nyl)-2H-pyra-zol-3-yl]-benzaldehyde] gave an IC50 of 1000 nM.
